# Values of other authors in publication PMC4282593 (Cancer chemotherapy and pharmacology, 2014).
# System: recurrent/refractory NBs
# Details: ref [23]
compound,measurement,setting,value
C[C@]12O[C@H](C[C@]1(O)CO)n1c3ccccc3c3c4c(c5c6ccccc6n2c5c31)CNC4=O [lestaurtinib],patients with durable responses,8/16 patients treated at a biologically effective dose,50%
same,side effects,Phase 1 clinical trial in NB patients,"limited to mild, including reversible liver transaminase elevations"
same,"duration of durable responses, on average",patients treated at a biologically effective dose,more than 10 months
